This is an account of results in patent publication US20070116645A1, “Methods and compositions for inhibiting cholesterol uptake” (priority 2004, published 2007).

“Also recorded” adds a separate entry of the source.

The test system of series [1] is CAV1-ANX2b heterocomplex. The series is described as follows: Immunoprecipitation and immunoblot for the CAV1-ANX2b heterocomplex in morpholino-injected embryos. The following applies: for CAV1-ANX2b heterocomplex present / ANX2b protein detected / CAV1 protein detected: 48 hpf embryos, MO injected at 1-8 cell stage; for ANX2b protein detected / CAV1 protein detected: FIG. 3A. It is filed as in vivo, zebrafish. The method, then:
(§1) All morpholino oligonucleotides were commercially obtained (GeneTools LLC, Philomath, Oreg.). Sequences used were: cav1, 5′-[…]-3′ (SEQ ID NO: 10); anx2b, 5′-[…]-3′ (SEQ ID NO: 11); anx2b (4 base mismatch), 5′-GCCAATT TCGTTAGTAGTTGAAGAG-3 (SEQ ID NO: 12)′; anx2a, 5′-[…]-3′ (SEQ ID NO: 13). MOs were dissolved in Danieau buffer (3) at a concentration of (1-3 μg/μl) and pressure injected into the yolk of early stage larvae (1-8 cell stage) as described (3).
The embryos were lysed in 1 ml of buffer (150 mM NaCl, 1.0% NP-40, 0.5% deoxycholate, 0.1% SDS, 50 mM Tris, pH 8.0) and protein amounts determined by Lowry. Equal amounts of lysate (50 ug) were mixed together in the lysis buffer for 1 hour at 37 °C. At the end of the incubation protein A-sepharose beads (blocked with lysis buffer and 30 mg/ml BSA) were used to pre-clear the samples. Pre-cleared samples were than incubated for 18 hours at 4° C. with the appropriate antibody (2 ug/sample) before adding blocked, protein A-sepharose beads and incubating an additional 2 hours at 4° C. The beads were collected by centrifugation, washed five times in high salt RIPA buffer (500 mM NaCl). The samples were than analyzed by SDS-PAGE and immunoblot.
For orientation: A western blot detects proteins with antibodies after separation by electrophoresis.

Series [2] concerns zebrafish larvae. The series is described as follows: In vivo assay for cholesterol transport (NBD-cholesterol intestinal fluorescence). As to conditions: 5 dpf larvae, three independent experiments, ANOVA p<0.00001. The method, then:
Embryos (uninjected or anx2b MO injected) at 5 dpf were labeled with NBD-cholesterol (1,26) and blind-sorted into three groups based on intestinal fluorescence, each assigned a numerical value: 1=no or weak fluorescence, 2=moderate, 3=strong; total n=41 uninjected, 55 injected.
Zebrafish larvae were labeled (2 h) with NBD-Cholesterol prepared as previously described (1) in embryo medium (21), anesthetized (tricaine, 170 ug/ml) and placed in depression slides. Fluorescent images were captured using a Zeiss Axiocam 2 mounted on a Leica MZFL-III. For statistical analysis intestinal fluorescence was scored on a three point scale (weak, moderate and bright) and analyzed (ANOVA).

Series [3] deals with zebrafish embryos. The series is described as follows: Developmental phenotype of morpholino-injected embryos (morphology, myoD in situ hybridization). The class given is in vivo. The procedure:
as §1
Methods for breeding and raising zebrafish were followed as described (21). Embryos were obtained from natural matings of wild-type (Oregon, AB) fish and staged according to criteria previously outlined (22) and by hours post-fertilization (hpf). Digoxigenin-labeled RNA probes synthesized for each gene were hybridized to embryos or larvae at various developmental stages. In situ hybridization for anx2b and cav1 expression was carried out as previously described (22).

Series [4] deals with zebrafish embryos. The series is described as follows: Uptake of 14C-labeled glucose in embryos. It is filed as in vivo. The following applies: 5 dpf embryos, data not shown. The method, then:
Embryos (uninjected or anx2b MO injected) at 5 dpf were placed at ten per tube in 0.5 ml embryo medium (21) containing methyl-D-glucose, 3-O-[glucose-^14C(U)] (American Radiolabeled Chemicals, Inc.) at a concentration of 12.5 μM and incubated at room temperature for 2 hours. Embryos were then chased with 0.5 ml embryo medium with 125 μM unlabeled glucose and incubated 30 minutes, then rinsed three times with chase solution, transferred to fresh tubes, vigorously homogenized with a pestle, and transferred into scintillation fluid for liquid scintillation counting. Three separate trials with 2 or 3 tubes each of uninjected and injected embryos were performed.

Series [5] relates to zebrafish embryos. The series is described as follows: Embryo lipid composition by SPE and GC-MS (cholesterol, cholesteryl ester, triglycerides). The class given is in vivo. The following applies: 72 hpf embryos, FIG. 5C. The method, then: Approximately 80 embryos at 72 hpf were placed in 0.7 ml of MBST/OG (25 mM MES, pH 6.5, 0.15 M NaCl, 1% (v/v) Triton X-100, 60 mM octylglucoside, 0.1% (w/v) SDS) and homogenized with a Tissue-Tearor™ homogenizer (Biospec Products, Inc). The sample was then sonicated (50 watts) for ten seconds, three times on ice, centrifuged at 1000×g for 5 minutes and the supernatant collected. Neutral lipids were isolated by Solid Phase Extraction (SPE) on an Oasis HLB 5 cc/200 mg LP Glass Cartridges (Waters, Milford Mass.). The columns were pre-conditioned with 3 ml of methyl tetr-butyl ether, then 3 ml methanol, and finally 3 ml of water. The sample (0.5 ml) was mixed with acetic acid (1 ml) and 5α-androstane-3α-17β-diol (recovery standard, 40 μl) and immediately applied to the column. The column was washed with 2 ml of 2% acetic acid followed by 2 ml of methanol (2%):acetic acid (2%). Neutral lipids were eluted with 3 ml of methyl tetr-butyl ether:methanol:acetic acid (75:23:2). The eluted material was dried under nitrogen, dissolved in 150 μl of hexane:isopropanol (3:2) and transferred to a gas chromatography vial. The material was dissolved in 20 μl of hexamethyldisilazane: pentafluoropropionic anhydride:acetonitrile (100:2:20) for 20 minutes at room temperature and […] was then injected onto a Chemstation gas chromatograph with a mass selective detector, Model 6890 (Agilent Technologies, Wilmington, Del.) and equipped with a SPE HT5 Aluminum Clad Fused Silica Capillary Column, 12 m, 0.32 mm ID, 0.1 um film (Supelco, Bellefonte, Pa.). The inlet temperature was 220° C., the interface temperature was 340° C. and the oven program was 140° C., hold 3 min, 20° C./min to 380° C., hold 5 min. Method of lipid detection was SIM mode with the following mass numbers: 416 for 5α-androstane-3α-17β-diol, 436 for TMS-cholesterol, 368 for cholesterol esters, 98 for triglycerides. A two step procedure was used to quantify the lipids. […]

Turning to “anx2a MO: morpholino antisense oligonucleotide against zebrafish anx2a, 5′-CTAAGAACTCAGAGACCAAAGCCAT-3′ (SEQ ID NO: 13) (all phosphorodiamidate morpholino (PMO)) [reference compound]”, in series [1], the CAV1-ANX2b heterocomplex present result is given as “contained the CAV1-ANX2b heterocomplex exactly like the uninjected embryos”.
As for “anx2b MO containing 4 bases mismatched: control morpholino, anx2b with 4 base mismatch, 5′-GCCAATT TCGTTAGTAGTTGAAGAG-3 (SEQ ID NO: 12) (antisense GCCAATTTCGTTAGTAGTTGAAGAG; all phosphorodiamidate morpholino (PMO); mismatch control morpholino) [reference compound]”, the CAV1-ANX2b heterocomplex present result in series [1] is on record as “contained the CAV1-ANX2b heterocomplex exactly like the uninjected embryos”.
“anx2b MO: morpholino antisense oligonucleotide against zebrafish anx2b, 5′-GCCATTTTCCTTAGTTGTTGTAGAG-3′ (SEQ ID NO: 11) (all phosphorodiamidate morpholino (PMO))”: the “ANX2b and complex detected (duration of MO effect)” value in series [1] (24, 48 and 72 hpf, FIG. 5B lanes 2-4) is “no ANX2b and thus no complex is detected”. In series [1], the CAV1-ANX2b heterocomplex present result is recorded as “only CAV protein monomer”, the ANX2b protein detected result was “did not contain ANX2b protein” and the CAV1 protein detected entry was “only detected as a monomer”. The “ANX2b detected (duration of MO effect)” value in series [1] (96 hpf, FIG. 5B lane 5) is on record as “again detected”. The “Intestinal fluorescence after feeding NBD-cholesterol” value in series [2] was “a subset of the injected larvae failed to accumulate the fluorescent cholesterol analog in the digestive tract; also recorded: significant reduction in intestinal fluorescence”. In addition, the Developmental abnormalities result in series [3] (zebrafish, in vivo) was “did not show any obvious developmental abnormalities”. The “Uptake of 14C-labeled glucose versus uninjected embryos” value in series [4] is given as “the same”. Further, in series [5], the “Level of cholesterol versus uninjected embryos” value is on record as “significantly lower”, the “Level of cholesteryl ester versus uninjected embryos” value is listed as “significantly lower” and the “Level of triglycerides versus uninjected embryos” value is given as “unaffected”.
As for “cav1 MO: morpholino antisense oligonucleotide against zebrafish cav1, 5′-TGTCCCGTCCTTGTATCCGCTAGTC-3′ (SEQ ID NO: 10) (all phosphorodiamidate morpholino (PMO))”, in series [1], the CAV1-ANX2b heterocomplex present entry is “only ANX2 protein monomer and no complex”; the ANX2b protein detected entry is reported as “seen only as a monomer”; the CAV1 protein detected entry was “not detected”. For the same substance, the “Survival to the stage where NBD-cholesterol is ingested” value in series [3] (MO-injected larvae) is “failed to survive to a stage where NBD-cholesterol is ingested”. Also, in series [3] (zebrafish, in vivo), the Developmental abnormalities result was “early developmental abnormalities including defects in axis elongation and somite patterning”; the “Somite morphology (myoD riboprobe)” value was “abnormal somites”.
